# Like-named read-outs stand apart in the source and are kept apart here.
# How the values were obtained:
# [1] = system: these strains; experiment: Activity against the strains of Table VI, agar-dilution; format: cell-based; conditions: at the levels tested
# Method: (§1) Especially noteworthy is the improved activity against gram-negative bacteria for several derivatives when compared to the activity of OMT. […] The MIC's in Tables V and VI were determined by standard agar-dilution assays. The MIC's in Table VII were obtained using a conventional broth-dilution microtiter test.
# [2] = system: Pasteurella multocida 40G; experiment: MIC, broth-dilution microtiter test (Table VII); format: cell-based; conditions: Pasteurella multocida, 40G
# Method: as §1
# [3] = system: Mycoplasma synoviae; experiment: MIC, broth-dilution microtiter test (Table VII); format: cell-based; conditions: Mycoplasmopsis synoviae
# Method: as §1
# [4] = system: Pasteurella hemolytica 23C; experiment: MIC, broth-dilution microtiter test (Table VII); format: cell-based; conditions: Pasteurella, P. hemolytica 23C, read-out: MIC
# Method: as §1
# [5] = system: Pasteurella hemolytica 22C; experiment: MIC, broth-dilution microtiter test (Table VII); format: cell-based; conditions: Pasteurella, P. hemolytica 22C, read-out: MIC
# Method: as §1
# [6] = system: Pasteurella multocida 60A; experiment: MIC, broth-dilution microtiter test (Table VII); format: cell-based; conditions: Pasteurella multocida, 60A
# Method: as §1
# [7] = system: Streptococcus sp. 80; experiment: MIC, broth-dilution microtiter test (Table VII); format: cell-based
# Method: as §1
# [8] = system: Pasteurella multocida 17E; experiment: MIC, broth-dilution microtiter test (Table VII); format: cell-based; conditions: Pasteurella multocida, 17E
# Method: as §1
# [9] = system: Mycoplasma gallisepticum; experiment: MIC, broth-dilution microtiter test (Table VII); format: cell-based; conditions: Mycoplasmoides gallisepticum
# Method: as §1
# [10] = system: Pasteurella multocida 22A; experiment: MIC, broth-dilution microtiter test (Table VII); format: cell-based; conditions: Pasteurella multocida, 22A
# Method: as §1
# [11] = system: Mycoplasma hyorhinis; experiment: MIC, broth-dilution microtiter test (Table VII); format: cell-based
# Method: as §1
# [12] = system: Pasteurella multocida 68C; experiment: MIC, broth-dilution microtiter test (Table VII); format: cell-based; conditions: Pasteurella multocida, 68C
# Method: as §1
# [13] = system: Staphylococcus aureus; experiment: MIC, broth-dilution microtiter test (Table VII); format: cell-based; conditions: Staphylococcus aureus
# Method: as §1
# [14] = system: Pasteurella hemolytica 41D; experiment: MIC, broth-dilution microtiter test (Table VII); format: cell-based; conditions: Pasteurella, P. hemolytica 41D, read-out: MIC
# Method: as §1
# [15] = system: Streptococcus pyogenes C203; experiment: MIC, standard agar-dilution assay (Table V); format: cell-based; conditions: Streptococcus pyogenes
# Method: (§2) The MIC's in Tables V and VI were determined by standard agar-dilution assays. The MIC's in Table VII were obtained using a conventional broth-dilution microtiter test.
# [16] = system: Escherichia coli TEM; experiment: MIC, standard agar-dilution assay (Table V); format: cell-based; conditions: Escherichia coli; E. coli TEM; agar dilution; read-out: MIC
# Method: as §2
# [17] = system: Staphylococcus aureus X1.1; experiment: MIC, standard agar-dilution assay (Table V); format: cell-based; conditions: Staphylococcus aureus, X1.1
# Method: as §1
# [18] = system: Streptococcus Group 9960; experiment: MIC, standard agar-dilution assay (Table V); format: cell-based; conditions: GROUP9960
# Method: as §1
# [19] = system: Escherichia coli N10; experiment: MIC, standard agar-dilution assay (Table V); format: cell-based; conditions: Escherichia coli; E. coli N10; agar dilution; read-out: MIC
# Method: as §1
# [20] = system: Escherichia coli EC14; experiment: MIC, standard agar-dilution assay (Table V); format: cell-based; conditions: Escherichia coli; E. coli EC14; agar dilution; read-out: MIC
# Method: as §1
# [21] = system: Staphylococcus aureus V41; experiment: MIC, standard agar-dilution assay (Table V); format: cell-based; conditions: Staphylococcus aureus
# Method: as §1
# [22] = system: Staphylococcus epidermidis EPI2; experiment: MIC, standard agar-dilution assay (Table V); format: cell-based; conditions: Staphylococcus epidermidis
# Method: as §1
# [23] = system: Staphylococcus epidermidis EPI1; experiment: MIC, standard agar-dilution assay (Table V); format: cell-based; conditions: Staphylococcus epidermidis
# Method: as §1
# [24] = system: Klebsiella pneumoniae X26; experiment: MIC, standard agar-dilution assay (Table V); format: cell-based; conditions: Klebsiella pneumoniae
# Method: as §1
# [25] = system: Streptococcus Group D X66; experiment: MIC, standard agar-dilution assay (Table V); format: cell-based
# Method: as §1
# [26] = system: Staphylococcus aureus S13E; experiment: MIC, standard agar-dilution assay (Table V); format: cell-based; conditions: Staphylococcus aureus, S13E
# Method: as §1
# [27] = system: Klebsiella pneumoniae KAE; experiment: MIC, standard agar-dilution assay (Table V); format: cell-based; conditions: Klebsiella pneumoniae; K. pneumoniae KAE; agar dilution; read-out: MIC
# Method: as §1
# [28] = system: Staphylococcus aureus X400; experiment: MIC, standard agar-dilution assay (Table V); format: cell-based; conditions: Staphylococcus aureus
# Method: as §1
# [29] = system: Shigella sonnei N9; experiment: MIC, standard agar-dilution assay (Table V); format: cell-based
# Method: as §1
# [30] = system: Streptococcus pneumoniae Park I; experiment: microbe, parasite or virus in culture; format: cell-based; conditions: Streptococcus pneumoniae
# Method: as §1
# [31] = system: Streptococcus pyogenes C203; experiment: ED50 in mice experimentally infected with S. pyogenes C203 (Table VIII); format: in vivo
# Method: The C-23 modified derivatives of OMT of this invention have shown in vivo antimicrobial activity against experimental infections. When two doses of test compound were administered to mice experimentally infected with a gram-positive bacterium, S. pyogenes C203, the activity observed was measured as an ED50 value [effective dose in mg/kg to protect 50% of the test animals: see Warren Wick, et al., J. Bacteriol. 81, 233-235 (1961)].
# [32] = system: Proteus morganii PR15; experiment: MIC, standard agar-dilution assay (Table VI); format: cell-based; conditions: Morganella morganii; P. morganii PR15; agar dilution; read-out: MIC
# Method: as §1
# [33] = system: Pseudomonas aeruginosa Ps18; experiment: MIC, standard agar-dilution assay (Table VI); format: cell-based; conditions: P. aeruginosa Ps18, agar dilution, read-out: MIC
# Method: as §1
# [34] = system: Enterobacter aerogenes C32; experiment: MIC, standard agar-dilution assay (Table VI); format: cell-based; conditions: Klebsiella aerogenes; E. aerogenes C32; agar dilution; read-out: MIC
# Method: as §1
# [35] = system: Pseudomonas aeruginosa X528; experiment: MIC, standard agar-dilution assay (Table VI); format: cell-based; conditions: X528
# Method: as §1
# [36] = system: Salmonella heidelberg X514; experiment: MIC, standard agar-dilution assay (Table VI); format: cell-based; conditions: Salmonella enterica; S. heidelberg X514; agar dilution; read-out: MIC
# Method: as §1
# [37] = system: Serratia marcescens SE3; experiment: MIC, standard agar-dilution assay (Table VI); format: cell-based; conditions: S. marcescens SE3, agar dilution, read-out: MIC
# Method: as §1
# [38] = system: Enterobacter aerogenes EB17; experiment: MIC, standard agar-dilution assay (Table VI); format: cell-based; conditions: Klebsiella aerogenes; E. aerogenes EB17; agar dilution; read-out: MIC
# Method: as §1
# [39] = system: Citrobacter freundii CF17; experiment: MIC, standard agar-dilution assay (Table VI); format: cell-based; conditions: C. freundii CF17, agar dilution, read-out: MIC
# Method: as §1
# [40] = system: Salmonella typhi 1335; experiment: MIC, standard agar-dilution assay (Table VI); format: cell-based; conditions: Salmonella enterica
# Method: as §1
# [41] = system: Proteus rettgeri PR7; experiment: MIC, standard agar-dilution assay (Table VI); format: cell-based; conditions: Providencia rettgeri; P. rettgeri PR7; agar dilution; read-out: MIC
# Method: as §1
# [42] = system: Proteus rettgeri C24; experiment: MIC, standard agar-dilution assay (Table VI); format: cell-based; conditions: Providencia rettgeri, P. rettgeri C24
# Method: as §1
# [43] = system: Enterobacter cloacae EB5; experiment: MIC, standard agar-dilution assay (Table VI); format: cell-based; conditions: E. cloacae EB5, agar dilution, read-out: MIC
# Method: as §1
# [44] = system: Serratia marcescens X99; experiment: MIC, standard agar-dilution assay (Table VI); format: cell-based; conditions: S. marcescens X99, agar dilution, read-out: MIC
# Method: as §1
# [45] = system: Pseudomonas aeruginosa X239; experiment: MIC, standard agar-dilution assay (Table VI); format: cell-based; conditions: P. aeruginosa X239, agar dilution, read-out: MIC
# Method: as §1
# [46] = system: Proteus inconstans PR33; experiment: MIC, standard agar-dilution assay (Table VI); format: cell-based; conditions: Providencia alcalifaciens; P. inconstans PR33; agar dilution; read-out: MIC
# Method: as §1
# [47] = system: Klebsiella pneumoniae X68; experiment: MIC, standard agar-dilution assay (Table VI); format: cell-based; conditions: K. pneumoniae X68, agar dilution, read-out: MIC
# Method: as §1
# [48] = system: Haemophilus influenzae Holt; experiment: MIC, standard agar-dilution assay (Table V); format: cell-based; conditions: Haemophilus influenzae
# Method: as §2
# [49] = system: Haemophilus influenzae R252; experiment: MIC, standard agar-dilution assay (Table V); format: cell-based; conditions: Haemophilus influenzae, R252
# Method: as §2
structure (smiles),measurement,setting,value
"CCC1OC(=O)CC(O)C(C)C(OC2OC(C)C(O)C(N(C)C)C2OC(C)=O)C(CC=O)CC(C)C(=O)C=CC(C)=CC1C[n+]1ccccc1 (stereo not shown) [Compound 1, 2'-O-Acetyl-23-deoxy-23-pyridinium-OMT Trifluoro methanesulfonate]",activity against these strains,[1],did not show activity
same,MIC,[2],> 50 µg/mL
same,MIC,[3],12.5 µg/mL
same,MIC,[4],> 50 µg/mL
same,MIC,[5],> 50 µg/mL
same,MIC,[6],> 50 µg/mL
same,MIC,"[7]; Streptococcus sp. 80, broth-dilution microtiter, read-out: MIC",12.5 µg/mL
same,MIC,[8],> 50 µg/mL
same,MIC,"[9]; M. gallisepticum, broth-dilution microtiter, read-out: MIC",25 µg/mL
same,MIC,[10],> 50 µg/mL
same,MIC,[11],50 µg/mL
same,MIC,[12],> 50 µg/mL
same,MIC,[13],50 µg/mL
same,MIC,[14],> 50 µg/mL
same,MIC,"[15]; S. pyogenes C203, agar dilution, read-out: MIC",32 µg/mL
same,MIC,[16],> 128 µg/mL
same,MIC,[17],32 µg/mL
same,MIC,[18],64 µg/mL
same,MIC,[19],> 128 µg/mL
same,MIC,[20],> 128 µg/mL
same,MIC,"[21]; S. aureus V41, penicillin-resistant strain, agar dilution, read-out: MIC",64 µg/mL
same,MIC,"[22]; S. epidermidis EPI2, agar dilution, read-out: MIC",64 µg/mL
same,MIC,"[23]; S. epidermidis EPI1, agar dilution, read-out: MIC",32 µg/mL
same,MIC,[24]; X26,64 µg/mL
same,MIC,[25],64 µg/mL
same,MIC,[26],32 µg/mL
same,MIC,[27],> 128 µg/mL
same,MIC,"[28]; S. aureus X400, methicillin-resistant strain, agar dilution, read-out: MIC",64 µg/mL
same,MIC,[29],> 128 µg/mL
same,MIC,"[30]; S. pneumoniae Park I, agar dilution, read-out: MIC",8 µg/mL
CCC1OC(=O)CC(O)C(C)C(OC2OC(C)C(O)C(N(C)C)C2O)C(CC=O)CC(C)C(=O)C=CC(C)(OC)C2CC12 (stereo not shown) [Compound 17],MIC,[2],6.25 µg/mL
same,MIC,[3],1.56 µg/mL
same,MIC,[4],25 µg/mL
same,MIC,[5],25 µg/mL
same,MIC,[6],12.5 µg/mL
same,MIC,"[7]; Streptococcus, SP.80",1.56 µg/mL
same,MIC,[8],6.25 µg/mL
same,MIC,[9],0.78 µg/mL
same,MIC,[10],6.25 µg/mL
same,MIC,"[11]; M. hyorhinis, broth-dilution microtiter, read-out: MIC",25 µg/mL
same,MIC,[12],6.25 µg/mL
same,MIC,[13],3.12 µg/mL
same,MIC,[14],25 µg/mL
same,ED50,"[31]; C203, po, read-out: ED50, Oral",> 100 mg/kg
same,ED50,"[31]; C203, sc, read-out: ED50, Subcutaneous",> 25 mg/kg
same,MIC,[32],> 128 µg/mL
same,MIC,[33],> 128 µg/mL
same,MIC,[34],> 128 µg/mL
same,MIC,[35],64 µg/mL
same,MIC,[36],> 128 µg/mL
same,MIC,[37],> 128 µg/mL
same,MIC,[38],> 128 µg/mL
same,MIC,[39],> 128 µg/mL
same,MIC,[40],> 128 µg/mL
same,MIC,[41],> 128 µg/mL
same,MIC,[42],> 128 µg/mL
same,MIC,[43],> 128 µg/mL
same,MIC,[44],> 128 µg/mL
same,MIC,[45],> 128 µg/mL
same,MIC,[46],> 128 µg/mL
same,MIC,[47],> 128 µg/mL
same,MIC,[48],8 µg/mL
same,MIC,[15]; C203,1 µg/mL
same,MIC,[49],8 µg/mL
same,MIC,[16],64 µg/mL
same,MIC,[17],2 µg/mL
same,MIC,[18],2 µg/mL
same,MIC,[19],> 128 µg/mL
same,MIC,[20],> 128 µg/mL
same,MIC,[21]; V41,2 µg/mL
same,MIC,[22]; EPI2,2 µg/mL
same,MIC,[23]; EPI1,2 µg/mL
same,MIC,"[24]; K. pneumoniae X26, agar dilution, read-out: MIC",16 µg/mL
same,MIC,[25],2 µg/mL
same,MIC,[26],2 µg/mL
same,MIC,[27],> 128 µg/mL
same,MIC,[28]; X400,2 µg/mL
same,MIC,[29],> 128 µg/mL
same,MIC,[30],0.25 µg/mL
